The values that follow come from PubChem BioAssay (NCI).

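Cells were grown in 96-well plates and exposed to each compound for 48 hours at five concentrations; endpoints were interpolated linearly between bracketing concentrations, or set to the highest concentration if not reached. Here, GI50 denotes the concentration required for 50% inhibition of growth. TGI is the concentration that stops growth completely.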

Some test systems named below: ACHN renal; CAKI-1 renal; HCT-116 colon; OVCAR-8 ovarian; PC-3 prostate; SF-268 CNS; SF-295 CNS; SN12C renal; SNB-19 CNS; U251 CNS.
Common to all, as to experiment: NCI anticancer screen, dose series, 48 h

For `CC[C@@H](C(=O)[C@H](C)[C@H](O)[C@@H](C)[C@H]1O[C@H]([C@@H](CC)C(=O)O)CC[C@H]1C)C1O[C@]2(C=C[C@@H](O)[C@]3(CC[C@@](C)([C@H]4CC[C@](O)(CC)[C@H](C)O4)O3)O2)[C@H](C)C[C@@H]1C` (stereo not given in full), the GI50 was 0.77 µM with ACHN renal; 0.637 µM in the test with CAKI-1 renal; 0.722 µM in the test with HCT-116 colon; 1.6 µM in the test on OVCAR-8 ovarian; 0.0692 µM with PC-3 prostate; 1.14 µM in the test on SF-268 CNS. For the same compound, the GI50 in the test on SF-295 CNS is 0.474 µM; with SN12C renal, 0.159 µM; with SNB-19 CNS it was 0.204 µM; in the test with U251 CNS, 0.113 µM. Moreover, the TGI was 40.2 µM in the test with ACHN renal; 13.9 µM with CAKI-1 renal; 35.7 µM in the test on HCT-116 colon; over 100 µM in the test with OVCAR-8 ovarian; 49 µM in the test on PC-3 prostate; 16.2 µM with SF-268 CNS. In addition, the TGI came out at 5.54 µM in the test with SF-295 CNS, 16.4 µM in the test with SN12C renal, 4.25 µM with SNB-19 CNS and 11.5 µM in the test with U251 CNS.
Take `COc1cccc(-n2cc(-c3nc(Nc4cc(C)[nH]n4)c4ccccc4n3)nn2)c1`: the GI50 is 0.261 µM with ACHN renal; 0.165 µM in the test with CAKI-1 renal; 2.1 µM in the test on HCT-116 colon; 2.88 µM in the test on OVCAR-8 ovarian; 3.48 µM in the test on PC-3 prostate; 5.39 µM in the test on SF-268 CNS. The GI50 in the test with SF-295 CNS is 2.88 µM; with SN12C renal, 3.04 µM; in the test with SNB-19 CNS it was 6.61 µM; in the test with U251 CNS, 1.87 µM. Besides, the TGI with ACHN renal amounted to 7.04 µM; with CAKI-1 renal it was 5.62 µM; in the test with HCT-116 colon, 10.5 µM; with OVCAR-8 ovarian, 11.7 µM; with PC-3 prostate it was 11.9 µM; in the test on SF-268 CNS, 13.8 µM. The TGI in the test on SF-295 CNS amounted to 11 µM; in the test on SN12C renal, 12.4 µM; in the test with SNB-19 CNS it was 15.7 µM; in the test with U251 CNS, 9.32 µM.
Regarding `Nc1ccccc1NC(=O)c1ccc(CN2CCC/C(=C\c3ccccn3)C2=O)cc1`, the GI50 in the test on ACHN renal was 1.26 µM; in the test on CAKI-1 renal it was 1.41 µM; in the test with HCT-116 colon it was 0.381 µM; in the test with OVCAR-8 ovarian, 0.878 µM; in the test with PC-3 prostate it was 1.33 µM; in the test on SF-268 CNS, 2.96 µM. The GI50 with SF-295 CNS was 1.92 µM; in the test with SN12C renal it was 2.59 µM; in the test on SNB-19 CNS it was 3.16 µM; in the test with U251 CNS, 1.83 µM. Moreover, the TGI in the test on ACHN renal was over 100 µM; in the test with CAKI-1 renal, 9.19 µM; in the test on HCT-116 colon it was over 100 µM; in the test on OVCAR-8 ovarian, over 100 µM; in the test on PC-3 prostate, over 100 µM; with SF-268 CNS it was 13 µM. For the same compound, the TGI in the test with SF-295 CNS was 11.7 µM; in the test with SN12C renal, over 100 µM; in the test with SNB-19 CNS, over 100 µM; in the test on U251 CNS it was over 100 µM.
`CC(C)=CCC1=C(OCC(=O)O)C(=O)c2ccccc2C1=O`: the TGI was over 100 µM with ACHN renal; over 100 µM with CAKI-1 renal; 66.8 µM in the test on HCT-116 colon; over 100 µM in the test on OVCAR-8 ovarian; over 100 µM in the test on PC-3 prostate; 65 µM in the test on SF-268 CNS. The TGI was 41.4 µM in the test on SF-295 CNS, 74.8 µM in the test with SN12C renal, 92.7 µM in the test on SNB-19 CNS and over 100 µM in the test on U251 CNS.
In the case of `O=C1CCCCC=C1C[N+](=O)[O-]`, the GI50 in the test on ACHN renal was 15.6 µM; with CAKI-1 renal it was 17.9 µM; in the test on HCT-116 colon, 17 µM; with OVCAR-8 ovarian, 26.6 µM; with PC-3 prostate it was 41.1 µM; in the test on SF-268 CNS it was 30.8 µM. Besides, the GI50 in the test with SF-295 CNS was 46.4 µM; with SN12C renal it was 31.6 µM; with SNB-19 CNS it was 42.1 µM; in the test on U251 CNS it was 33.9 µM. In addition, the TGI in the test with ACHN renal is 31.2 µM; with CAKI-1 renal, 45.8 µM; in the test with HCT-116 colon, 50.8 µM; in the test on OVCAR-8 ovarian, over 100 µM; in the test with PC-3 prostate, over 100 µM; in the test with SF-268 CNS, over 100 µM. Besides, the TGI in the test with SF-295 CNS, in the test with SN12C renal, with SNB-19 CNS and with U251 CNS was over 100 µM in each case.
Turning to `O=[N+]([O-])c1ccc(Sc2nc(Cl)nc(NC3CCCC3)n2)cc1`, the GI50 in the test with ACHN renal was over 10 µM; with CAKI-1 renal, 3.9 µM; in the test with HCT-116 colon, 4.83 µM; with OVCAR-8 ovarian it was over 10 µM; in the test with PC-3 prostate, over 10 µM; in the test with SF-268 CNS, over 10 µM. Moreover, the GI50 with SF-295 CNS, with SN12C renal, with SNB-19 CNS and in the test on U251 CNS was over 10 µM throughout. The TGI in the test with ACHN renal, in the test on CAKI-1 renal, in the test on HCT-116 colon, with OVCAR-8 ovarian, with PC-3 prostate and with SF-268 CNS was over 10 µM in each case. In addition, the TGI in the test on SF-295 CNS, with SN12C renal, in the test on SNB-19 CNS and in the test with U251 CNS was over 10 µM throughout.
For the compound `COc1ccc2c(c1)C1OCCNC1CC2` (stereo not given), the TGI with ACHN renal, in the test on CAKI-1 renal, in the test with HCT-116 colon, with OVCAR-8 ovarian, in the test with PC-3 prostate and in the test on SF-268 CNS was over 100 µM throughout. The TGI in the test on SF-295 CNS, with SN12C renal, in the test on SNB-19 CNS and in the test with U251 CNS was over 100 µM throughout.
On to `Nc1nc2c(nnn2C2OC(CO)C(O)C2O)c(=O)[nH]1` (stereo not given), for which the GI50 was 0.298 µM in the test on ACHN renal; 0.567 µM in the test with CAKI-1 renal; 2.16 µM with HCT-116 colon; 1.18 µM with OVCAR-8 ovarian; 0.617 µM with PC-3 prostate; 3.15 µM with SF-268 CNS. The GI50 with SF-295 CNS is 1.21 µM; in the test on SN12C renal, 3.25 µM; in the test with SNB-19 CNS, 7.33 µM; with U251 CNS, 2.96 µM. Further, the TGI is over 100 µM with ACHN renal; over 100 µM with CAKI-1 renal; over 100 µM in the test with HCT-116 colon; over 100 µM in the test with OVCAR-8 ovarian; over 44 µM with PC-3 prostate; over 100 µM in the test with SF-268 CNS. The TGI in the test on SF-295 CNS, with SN12C renal, in the test on SNB-19 CNS and in the test on U251 CNS was over 100 µM in each case.
